The text below walks through data of patent US8846935B2, “Indazoles” (GlaxoSmithKline LLC, priority 2010, dated 2014).

Counter-ions that a name gives are not always drawn.

T1 sequence (Q15910 whole entry): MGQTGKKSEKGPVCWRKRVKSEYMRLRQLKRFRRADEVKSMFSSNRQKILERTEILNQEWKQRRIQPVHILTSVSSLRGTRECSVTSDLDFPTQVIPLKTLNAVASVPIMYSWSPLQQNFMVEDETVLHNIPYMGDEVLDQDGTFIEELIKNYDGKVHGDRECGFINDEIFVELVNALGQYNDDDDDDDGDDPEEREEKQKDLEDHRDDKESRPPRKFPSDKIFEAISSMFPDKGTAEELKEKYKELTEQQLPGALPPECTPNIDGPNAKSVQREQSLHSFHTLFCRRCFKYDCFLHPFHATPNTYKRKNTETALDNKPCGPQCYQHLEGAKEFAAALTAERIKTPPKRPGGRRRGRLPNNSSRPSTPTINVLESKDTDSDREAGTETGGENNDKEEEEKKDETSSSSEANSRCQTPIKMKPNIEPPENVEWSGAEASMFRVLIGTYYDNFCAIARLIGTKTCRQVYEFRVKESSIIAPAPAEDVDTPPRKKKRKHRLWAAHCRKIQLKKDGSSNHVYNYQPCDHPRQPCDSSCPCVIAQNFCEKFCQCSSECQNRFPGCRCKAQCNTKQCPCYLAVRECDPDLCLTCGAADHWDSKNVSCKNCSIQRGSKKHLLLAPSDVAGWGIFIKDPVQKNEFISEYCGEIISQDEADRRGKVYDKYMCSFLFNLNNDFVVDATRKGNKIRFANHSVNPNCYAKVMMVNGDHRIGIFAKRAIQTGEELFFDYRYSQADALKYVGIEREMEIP
T1 sequence (O75530 whole entry partner): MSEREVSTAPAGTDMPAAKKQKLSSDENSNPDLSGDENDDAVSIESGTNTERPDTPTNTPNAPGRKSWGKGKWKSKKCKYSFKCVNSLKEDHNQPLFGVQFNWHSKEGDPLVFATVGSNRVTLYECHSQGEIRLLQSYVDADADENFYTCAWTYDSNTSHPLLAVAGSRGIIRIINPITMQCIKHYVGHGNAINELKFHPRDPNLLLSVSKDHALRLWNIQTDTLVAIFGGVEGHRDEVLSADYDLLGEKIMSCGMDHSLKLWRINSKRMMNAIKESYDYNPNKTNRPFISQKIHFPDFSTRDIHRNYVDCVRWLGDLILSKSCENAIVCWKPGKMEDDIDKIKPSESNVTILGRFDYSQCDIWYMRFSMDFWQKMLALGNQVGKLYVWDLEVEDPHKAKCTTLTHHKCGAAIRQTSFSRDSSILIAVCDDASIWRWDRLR
T1 sequence (Q15022 whole entry partner): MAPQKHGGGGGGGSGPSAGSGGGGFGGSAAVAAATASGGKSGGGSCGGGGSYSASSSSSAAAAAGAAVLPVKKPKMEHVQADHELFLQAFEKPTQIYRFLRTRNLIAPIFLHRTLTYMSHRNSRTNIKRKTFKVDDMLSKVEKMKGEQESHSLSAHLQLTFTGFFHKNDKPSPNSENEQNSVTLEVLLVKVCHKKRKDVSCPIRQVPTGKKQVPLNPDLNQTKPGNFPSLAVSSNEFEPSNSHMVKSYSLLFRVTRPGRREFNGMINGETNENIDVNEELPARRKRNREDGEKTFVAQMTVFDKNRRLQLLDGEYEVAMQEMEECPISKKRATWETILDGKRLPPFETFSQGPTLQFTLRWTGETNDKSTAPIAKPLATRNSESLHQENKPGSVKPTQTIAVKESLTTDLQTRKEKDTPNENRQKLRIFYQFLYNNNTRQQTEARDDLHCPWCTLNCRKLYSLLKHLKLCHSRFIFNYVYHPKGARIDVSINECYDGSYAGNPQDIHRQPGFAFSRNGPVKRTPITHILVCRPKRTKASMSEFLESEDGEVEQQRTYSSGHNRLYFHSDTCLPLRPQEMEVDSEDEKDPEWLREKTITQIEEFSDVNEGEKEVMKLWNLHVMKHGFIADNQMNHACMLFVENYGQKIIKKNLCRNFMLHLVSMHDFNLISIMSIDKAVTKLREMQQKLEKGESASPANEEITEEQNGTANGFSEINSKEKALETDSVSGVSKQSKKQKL
T1 sequence (Q09028 whole entry partner): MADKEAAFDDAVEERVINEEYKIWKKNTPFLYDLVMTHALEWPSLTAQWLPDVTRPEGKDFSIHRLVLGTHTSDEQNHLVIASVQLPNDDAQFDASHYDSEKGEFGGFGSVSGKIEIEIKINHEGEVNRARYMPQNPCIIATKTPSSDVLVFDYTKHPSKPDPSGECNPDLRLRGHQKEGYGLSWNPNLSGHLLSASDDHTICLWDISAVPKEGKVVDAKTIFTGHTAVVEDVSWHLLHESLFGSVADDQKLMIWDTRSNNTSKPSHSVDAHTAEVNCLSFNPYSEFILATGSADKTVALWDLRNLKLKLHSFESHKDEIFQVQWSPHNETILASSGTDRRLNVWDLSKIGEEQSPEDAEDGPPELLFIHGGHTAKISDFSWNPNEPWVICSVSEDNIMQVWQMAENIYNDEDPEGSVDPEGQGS
T1 sequence (Q6ZN18 whole entry partner): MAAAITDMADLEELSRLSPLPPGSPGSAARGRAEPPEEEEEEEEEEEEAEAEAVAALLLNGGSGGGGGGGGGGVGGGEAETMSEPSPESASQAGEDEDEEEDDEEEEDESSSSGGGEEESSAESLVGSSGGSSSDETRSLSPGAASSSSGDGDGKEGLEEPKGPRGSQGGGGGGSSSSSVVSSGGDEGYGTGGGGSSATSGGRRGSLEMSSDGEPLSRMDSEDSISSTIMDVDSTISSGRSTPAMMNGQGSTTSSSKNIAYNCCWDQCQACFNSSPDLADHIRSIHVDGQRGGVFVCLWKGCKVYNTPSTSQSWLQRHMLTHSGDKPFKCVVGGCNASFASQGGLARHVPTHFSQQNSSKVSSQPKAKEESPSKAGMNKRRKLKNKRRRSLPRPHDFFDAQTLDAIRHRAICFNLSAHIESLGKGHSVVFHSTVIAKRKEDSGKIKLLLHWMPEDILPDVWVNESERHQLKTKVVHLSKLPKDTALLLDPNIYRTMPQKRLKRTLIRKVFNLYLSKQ

This test addresses T1, EZH2 within the PRC2 complex (Homo sapiens, UniProt Q15910).
T1 construct: FLAG; made in house; host or cells: Sf9 cells
As to the kind of experiment: EZH2 methyltransferase scintillation proximity assay (SPA). The format is biochemical. The conditions noted are these: methyltransferase activity of EZH2 in human PRC2 complex, 3H-SAM, HeLa mononucleosomes. The procedure: Compounds contained herein were evaluated for their ability to inhibit the methyltransferase activity of EZH2 within the PRC2 complex. Human PRC2 complex was prepared by co-expressing each of the 5 member proteins (FLAG-EZH2, EED, SUZ12, RbAp48, AEBP2) in Sf9 cells followed by co-purification. Enzyme activity was measured in a scintillation proximity assay (SPA) where a tritiated methyl group is transferred from 3H-SAM to a lysine residue on Histone H3 of a mononucleosome, purified from HeLa cells. Mononucleosomes were captured on SPA beads and the resulting signal is read on a ViewLux plate reader.
Part A. Compound Preparation
• 1. Prepare 10 mM stock of compounds from solid in 100% DMSO. • 2. Set up an 11-point serial dilution (1:3 dilution, top concentration 10 mM) in 100% DMSO for each test compound in a 384 well plate leaving columns 6 and 18 for DMSO controls. • 3. Dispense 100 nL of compound from the dilution plate into reaction plates (Grenier Bio-One, 384-well, Cat#784075). Part B. Reagent Preparation Prepare the following solutions: • 1. 50 mM Tris-HCl, pH 8: Per 1 L of base buffer, combine 1 M Tris-HCl, pH 8 (50 mL) and distilled water (950 mL). • 2. 1× Assay Buffer: Per 10 mL of 1× Assay Buffer, combine 50 mM Tris-HCl, pH 8 (9958 uL), 1 M MgCl2 (20 uL), 2 M DTT (20 uL), and 10% Tween-20 (2 uL) to provide a final concentration of 50 mM Tris-HCl, pH 8, 2 mM MgCl2, 4 mM DTT, 0.002% Tween-20. • 3. 2× Enzyme Solution: Per 10 mL of 2× Enzyme Solution, combine 1× Assay Buffer and PRC2 complex to provide a final enzyme concentration of 10 nM. • 4. SPA Bead Suspension: Per 1 mL of SPA Bead Suspension, combine PS-PEI coated LEADSeeker beads (40 mg) and ddH2O (1 mL) to provide a final concentration of 40 mg/mL. • 5. 2× Substrate Solution: Per 10 mL of 2× Substrate Solution, combine 1× Assay Buffer (9728.55 uL), 800 ug/mL mononucleosomes (125 uL), 1 mM cold SAM (4 uL), and 7.02 uM 3H-SAM (142.45 uL; 0.55 mCi/mL) to provide a final concentration of 5 ug/mL nucleosomes, 0.2 uM cold SAM, and 0.05 uM 3H-SAM. • 6. 2.67× Quench/Bead Mixture: Per 10 mL of 2.67× Quench/Bead Mixture, combine ddH2O (9358 uL), 10 mM cold SAM (267 uL), 40 mg/mL Bead Suspension (375 uL) to provide a final concentration of 100 uM cold SAM and 0.5 mg/mL SPA beads. Part C. Assay Reaction in 384-well Grenier Bio-One Plates Compound Addition • 1. Dispense […] of 100× Compound to test wells (as noted above). • 2. Dispense […] of 100% DMSO to columns 6 & 18 for high and low controls, respectively. Assay • 1. Dispense 5 uL/well of 1× Assay Buffer to column 18 (low control reactions). • 2. Dispense 5 uL/well of 2× Enzyme Solution to columns 1-17, 19-24. • 3. Spin assay plates for ˜1 minute at 500 rpm. • 4. Stack the assay plates, covering the top plate. • 5. Incubate the compound/DMSO with the enzyme for 30 minutes at room temperature. • 6. Dispense 5 uL/well of 2× Substrate Solution to columns 1-24. • 7. Spin assay plates for ˜1 minute at 500 rpm. • 8. Stack the assay plates, covering the top plate. • 9. Incubate the assay plates at room temperature for 1 hour. Quench/Bead Addition • 1. Dispense 5 uL/well of the 3× Quench/Bead Mixture to columns 1-24. • 2. Seal the top of each assay plate with adhesive TopSeal. • 3. Spin assay plates for ˜1 minute at 500 rpm. • 4. Equilibrate the plates for >20 min. Read Plates • 1. Read the assay plates on the Viewlux Plate Reader utilizing the 613 nm emission filter with a 300 s read time. Reagent addition can be done manually or with automated liquid handler. *The final DMSO concentration in this assay is 1%. *The positive control is in column 6; negative control is in column 18. *Final starting concentration of compounds is 100 μM. Part D. Data Analysis
Percent inhibition was calculated relative to the DMSO control for each compound concentration and the resulting values were fit using standard IC50 fitting parameters within the ABASE data fitting software package.
Background: Scintillation proximity formats need no separation of bound from free tracer.
In general, IC50 refers to the midpoint of a concentration-inhibition curve. `CCCc1cc(C)[nH]c(=O)c1CNC(=O)c1cc(-c2ccc(N3CCN(C)CC3)nc2)cc2c1cnn2C(C)C` [Example 24, 1-(1-methylethyl)-N-[(6-methyl-2-oxo-4-propyl-1,2-dihydro-3-pyridinyl)methyl]-6-[6-(4-methyl-1-piperazinyl)-3-pyridinyl]-1H-indazole-4-carboxamide] registered an IC50 of 5 nM.
In the case of `CCCc1cc(C)[nH]c(=O)c1CNC(=O)c1cc(-c2cccnc2C)cc2c1cnn2C(C)C` [Example 25, 1-(1-methylethyl)-N-[(6-methyl-2-oxo-4-propyl-1,2-dihydro-3-pyridinyl)methyl]-6-(2-methyl-3-pyridinyl)-1H-indazole-4-carboxamide] it was 13 nM.
As to `Cc1cc(C)c(CNC(=O)c2cc(-c3ccc(N(C)C)nc3)cc3c2cnn3C(C)C)c(=O)[nH]1` [Example 27, 6-[6-(dimethylamino)-3-pyridinyl]-N-[(4,6-dimethyl-2-oxo-1,2-dihydro-3-pyridinyl)methyl]-1-(1-methylethyl)-1H-indazole-4-carboxamide], the IC50 amounted to 32 nM.
Compound `Cc1cc(C)c(CNC(=O)c2cc(-c3cccc(CN(C)C)c3)cc3c2cnn3C(C)C)c(=O)[nH]1` [Example 29, 6-{3-[(dimethylamino)methyl]phenyl}-N-[(4,6-dimethyl-2-oxo-1,2-dihydro-3-pyridinyl)methyl]-1-(1-methylethyl)-1H-indazole-4-carboxamide] registered an IC50 of 40 nM.
The same measure for `CCCc1cc(C)[nH]c(=O)c1CNC(=O)c1cc(-c2ccsc2)cc2c1cnn2C(C)C` [Example 31, N-((1,2-dihydro-6-methyl-2-oxo-4-propylpyridin-3-yl)methyl)-1-isopropyl-6-(thiophen-3-yl)-1H-indazole-4-carboxamide]: 20 nM.
The same measure for `CCCc1cc(C)[nH]c(=O)c1CNC(=O)c1cc(-c2ccc(CN(C)C)cc2)cc2c1cnn2C(C)C` [Example 33, 6-{4-[(dimethylamino)methyl]phenyl}-1-(1-methylethyl)-N-[(6-methyl-2-oxo-4-propyl-1,2-dihydro-3-pyridinyl)methyl]-1H-indazole-4-carboxamide hydrochloride salt]: 5 nM.
